# Source: patent publication US10947574B2, “Method for producing fermented carotenoid using carotenoid-producing bacteria obtained by using cobalt-containing culturing medium” (ENEOS CORPORATION, priority 2015, dated 2021)
# System: Paracoccus carotinifaciens strain E-396 (FERM BP-4283)
# Assay: Example 3: cobalt concentration series, growth (OD610) and carotenoid levels (HPLC)
# Format: cell-based
# Method: In the following examples, carotenoids were quantified by high performance liquid chromatography (HPLC) as follows.
# Two columns of Inertsil SIL-100A, 5 μm (ϕ4.6 mm×250 mm) (GL Sciences Inc., Japan) were connected together for use as a column. For elution, a mixed solution of n-hexane, tetrahydrofuran and methanol (40:20:1) serving as a mobile phase was passed through the column at a flow rate of 1.0 mL per minute at a constant temperature around room temperature. For measurement, samples were each dissolved in tetrahydrofuran and diluted 100-fold with the mobile phase, and 20 μL aliquots of the resulting dilutions were injected into the column. The column eluates were detected at a wavelength of 470 nm. As a standard for quantification, astaxanthin (SIGMA, Cat. No. A9335) was used. The astaxanthin concentration of the standard solution was determined using the following equation after measuring the absorbance (A) of the standard solution at 477 nm and the area percentage % (B) of the astaxanthin peak in HPLC analysis under the above conditions.
# Subsequently, a medium of the following composition (glucose 30 g/L, filtered corn steep liquor 30 g/L, ammonium sulfate 1.5 g/L, potassium dihydrogen phosphate 1.5 g/L, disodium hydrogen phosphate dodecahydrate 3.8 g/L, calcium chloride dihydrate 5.0 g/L, magnesium sulfate heptahydrate 0.7 g/L, iron sulfate heptahydrate 1.0 g/L, silicon-based defoaming agent 0.2 g/L) was dispensed in 7.2 ml volumes into cotton-plugged test tubes having an inner diameter of 18 mm to prepare 12 test tubes containing a test tube medium for production. The ingredients used to prepare the test tube medium for production were obtained from lots where microbial cells had been confirmed not to grow well.
# The resulting culture solution was then inoculated in 0.05 ml volumes into the 12 types of test tube media for production having different cobalt concentrations, and cultured under shaking at 28° C. for 4 days at 300 spm.
# The cobalt concentration in the cobalt chloride-free medium and the concentration of cobalt chloride added to each medium were summed up to calculate the concentration of cobalt present in each medium (Table 6).
# After being cultured for 4 days, the culture solutions were each measured for microbial cell growth by OD610 and measure for carotenoid levels by HPLC. […] Moreover, FIGS. 2 to 4 show graphs plotted in enlarged scale for the high and low concentration ranges of cobalt present in the medium.
# [1] = cobalt added 0.00042 μmol/L, present 0.0024 μmol/L
# [2] = cobalt added 0.0042 μmol/L, present 0.0062 μmol/L
# [3] = cobalt added 0.0084 μmol/L, present 0.0104 μmol/L
# [4] = cobalt added 0.021 μmol/L, present 0.023 μmol/L
# [5] = cobalt added 0.042 μmol/L, present 0.044 μmol/L
# [6] = cobalt added 0.42 μmol/L, present 0.42 μmol/L
# [7] = cobalt added 1.1 μmol/L, present 1.05 μmol/L
# [8] = cobalt added 4.2 μmol/L, present 4.2 μmol/L
# [9] = cobalt added 8.4 μmol/L, present 8.4 μmol/L
# [10] = cobalt added 21 μmol/L, present 21 μmol/L
# [11] = cobalt added 42 μmol/L, present 42 μmol/L
compound,measurement,setting,value
O.O.O.O.O.O.[Cl-].[Cl-].[Co+2] [Cobalt chloride hexahydrate],Carotenoid: 3-Hydroxyechinenone,[1],0.1 mg/L
same,Carotenoid: Adonirubin,[1],0.0 mg/L
same,Carotenoid: Adonixanthin,[1],3.0 mg/L
same,Carotenoid: Astaxanthin,[1],0.8 mg/L
same,Carotenoid: Asteroidenone,[1],0.1 mg/L
same,Carotenoid: Canthaxanthin,[1],0.0 mg/L
same,Carotenoid: Echinenone,[1],0.0 mg/L
same,Carotenoid: β-Carotene,[1],0.2 mg/L
same,OD610,[1],5
same,Total carotenoid,[1],4.1 mg/L
same,Carotenoid: 3-Hydroxyechinenone,[2],0.3 mg/L
same,Carotenoid: Adonirubin,[2],0.4 mg/L
same,Carotenoid: Adonixanthin,[2],7.0 mg/L
same,Carotenoid: Astaxanthin,[2],3.6 mg/L
same,Carotenoid: Asteroidenone,[2],0.3 mg/L
same,Carotenoid: Canthaxanthin,[2],0.1 mg/L
same,Carotenoid: Echinenone,[2],0.2 mg/L
same,Carotenoid: β-Carotene,[2],1.0 mg/L
same,OD610,[2],9
same,Total carotenoid,[2],12.9 mg/L
same,Carotenoid: 3-Hydroxyechinenone,[3],0.4 mg/L
same,Carotenoid: Adonirubin,[3],1.3 mg/L
same,Carotenoid: Adonixanthin,[3],4.0 mg/L
same,Carotenoid: Astaxanthin,[3],11.7 mg/L
same,Carotenoid: Asteroidenone,[3],0.4 mg/L
same,Carotenoid: Canthaxanthin,[3],0.9 mg/L
same,Carotenoid: Echinenone,[3],0.4 mg/L
same,Carotenoid: β-Carotene,[3],1.1 mg/L
same,OD610,[3],18
same,Total carotenoid,[3],20.2 mg/L
same,Carotenoid: 3-Hydroxyechinenone,[4],0.5 mg/L
same,Carotenoid: Adonirubin,[4],8.3 mg/L
same,Carotenoid: Adonixanthin,[4],3.1 mg/L
same,Carotenoid: Astaxanthin,[4],26.5 mg/L
same,Carotenoid: Asteroidenone,[4],0.4 mg/L
same,Carotenoid: Canthaxanthin,[4],3.4 mg/L
same,Carotenoid: Echinenone,[4],1.4 mg/L
same,Carotenoid: β-Carotene,[4],1.0 mg/L
same,OD610,[4],34
same,Total carotenoid,[4],44.5 mg/L
same,Carotenoid: 3-Hydroxyechinenone,[5],0.5 mg/L
same,Carotenoid: Adonirubin,[5],6.4 mg/L
same,Carotenoid: Adonixanthin,[5],3.5 mg/L
same,Carotenoid: Astaxanthin,[5],25.5 mg/L
same,Carotenoid: Asteroidenone,[5],0.4 mg/L
same,Carotenoid: Canthaxanthin,[5],2.6 mg/L
same,Carotenoid: Echinenone,[5],1.2 mg/L
same,Carotenoid: β-Carotene,[5],0.8 mg/L
same,OD610,[5],35
same,Total carotenoid,[5],40.9 mg/L
same,Carotenoid: 3-Hydroxyechinenone,[6],0.7 mg/L
same,Carotenoid: Adonirubin,[6],5.8 mg/L
same,Carotenoid: Adonixanthin,[6],3.2 mg/L
same,Carotenoid: Astaxanthin,[6],28.6 mg/L
same,Carotenoid: Asteroidenone,[6],0.5 mg/L
same,Carotenoid: Canthaxanthin,[6],2.3 mg/L
same,Carotenoid: Echinenone,[6],1.2 mg/L
same,Carotenoid: β-Carotene,[6],0.8 mg/L
same,OD610,[6],37
same,Total carotenoid,[6],42.9 mg/L
same,Carotenoid: 3-Hydroxyechinenone,[7],0.4 mg/L
same,Carotenoid: Adonirubin,[7],7.0 mg/L
same,Carotenoid: Adonixanthin,[7],1.7 mg/L
same,Carotenoid: Astaxanthin,[7],26.8 mg/L
same,Carotenoid: Asteroidenone,[7],0.3 mg/L
same,Carotenoid: Canthaxanthin,[7],3.1 mg/L
same,Carotenoid: Echinenone,[7],1.2 mg/L
same,Carotenoid: β-Carotene,[7],0.8 mg/L
same,OD610,[7],37
same,Total carotenoid,[7],41.3 mg/L
same,Carotenoid: 3-Hydroxyechinenone,[8],0.2 mg/L
same,Carotenoid: Adonirubin,[8],14.3 mg/L
same,Carotenoid: Adonixanthin,[8],0.7 mg/L
same,Carotenoid: Astaxanthin,[8],14.2 mg/L
same,Carotenoid: Asteroidenone,[8],0.1 mg/L
same,Carotenoid: Canthaxanthin,[8],8.1 mg/L
same,Carotenoid: Echinenone,[8],1.4 mg/L
same,Carotenoid: β-Carotene,[8],0.7 mg/L
same,OD610,[8],33
same,Total carotenoid,[8],39.7 mg/L
same,Carotenoid: 3-Hydroxyechinenone,[9],0.1 mg/L
same,Carotenoid: Adonirubin,[9],11.9 mg/L
same,Carotenoid: Adonixanthin,[9],0.3 mg/L
same,Carotenoid: Astaxanthin,[9],9.3 mg/L
same,Carotenoid: Asteroidenone,[9],0.1 mg/L
same,Carotenoid: Canthaxanthin,[9],9.9 mg/L
same,Carotenoid: Echinenone,[9],2.0 mg/L
same,Carotenoid: β-Carotene,[9],0.8 mg/L
same,OD610,[9],31
same,Total carotenoid,[9],34.4 mg/L
same,Carotenoid: 3-Hydroxyechinenone,[10],0.1 mg/L
same,Carotenoid: Adonirubin,[10],6.5 mg/L
same,Carotenoid: Adonixanthin,[10],0.2 mg/L
same,Carotenoid: Astaxanthin,[10],1.9 mg/L
same,Carotenoid: Asteroidenone,[10],0.1 mg/L
same,Carotenoid: Canthaxanthin,[10],9.4 mg/L
same,Carotenoid: Echinenone,[10],2.8 mg/L
same,Carotenoid: β-Carotene,[10],1.2 mg/L
same,OD610,[10],23
same,Total carotenoid,[10],22.2 mg/L
same,Carotenoid: 3-Hydroxyechinenone,[11],0.0 mg/L
same,Carotenoid: Adonirubin,[11],0.2 mg/L
same,Carotenoid: Adonixanthin,[11],0.0 mg/L
same,Carotenoid: Astaxanthin,[11],0.1 mg/L
same,Carotenoid: Asteroidenone,[11],0.0 mg/L
same,Carotenoid: Canthaxanthin,[11],0.1 mg/L
same,Carotenoid: Echinenone,[11],0.0 mg/L
same,Carotenoid: β-Carotene,[11],0.0 mg/L
same,OD610,[11],3
same,Total carotenoid,[11],0.4 mg/L
